Source: US8389557B2, “Triazole derivatives useful as Axl inhibitors” (Rigel Pharmaceuticals, Inc., priority 2005, dated 2013)

Target: T1, Axl (Homo sapiens, UniProt P30530)
T1 construct: endogenous in cells; host or cells: HeLa cells
T1 sequence (P30530 26-894): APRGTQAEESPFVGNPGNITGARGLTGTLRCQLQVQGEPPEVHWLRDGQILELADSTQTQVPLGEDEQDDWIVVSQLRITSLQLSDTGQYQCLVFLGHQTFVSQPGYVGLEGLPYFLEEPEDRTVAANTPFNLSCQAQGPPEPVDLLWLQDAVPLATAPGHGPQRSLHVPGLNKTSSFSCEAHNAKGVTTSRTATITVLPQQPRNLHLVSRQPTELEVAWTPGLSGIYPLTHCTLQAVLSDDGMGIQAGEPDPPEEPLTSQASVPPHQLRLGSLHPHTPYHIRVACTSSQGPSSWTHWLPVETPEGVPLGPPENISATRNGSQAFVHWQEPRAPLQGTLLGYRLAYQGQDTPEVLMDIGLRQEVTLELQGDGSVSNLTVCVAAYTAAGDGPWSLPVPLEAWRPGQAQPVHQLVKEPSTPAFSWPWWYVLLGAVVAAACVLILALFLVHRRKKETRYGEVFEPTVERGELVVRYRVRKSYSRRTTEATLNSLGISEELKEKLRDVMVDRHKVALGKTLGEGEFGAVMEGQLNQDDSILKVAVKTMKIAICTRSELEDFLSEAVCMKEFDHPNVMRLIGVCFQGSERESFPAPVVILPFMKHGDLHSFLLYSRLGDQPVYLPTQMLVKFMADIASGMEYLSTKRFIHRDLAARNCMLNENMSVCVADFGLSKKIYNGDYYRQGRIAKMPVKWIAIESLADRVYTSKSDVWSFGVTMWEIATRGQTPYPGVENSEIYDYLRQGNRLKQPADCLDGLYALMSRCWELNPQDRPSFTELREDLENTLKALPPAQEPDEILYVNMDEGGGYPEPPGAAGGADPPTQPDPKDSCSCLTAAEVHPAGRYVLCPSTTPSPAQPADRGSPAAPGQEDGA
Assay: Phospho-Akt in-cell Western assay (inhibition of Axl activity)
Format: cell-based
Procedure, shortened: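 HeLa cells on poly-L-lysine, starved 24 h in 0.5% FCS DMEM with Axl/Fc 500 ng/mL, pre-treated with compound 1 h at 37° C. Axl stimulated 5 min by anti-Axl/anti-mouse antibody cross-linking. Fixed cells probed with anti-phospho-Akt and HRP secondary, chemiluminescence read.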

[1] = inhibition of Axl activity, phospho-Akt in-cell Western assay, Table 1
[2] = Table 2, Hela cells, Axl antibody cross-linking stimulation, phospho-Akt chemiluminescence
[3] = Table 3, Hela cells, Axl antibody cross-linking stimulation, phospho-Akt chemiluminescence

IC50 [1] [µM]	Structure (SMILES)	other results
> 20	Nc1nc(Nc2ccc(OCCN3CCCC3)cc2)nn1C(=O)c1c(F)cccc1F [compound 289, 5-amino-1-(2,6-difluorophenyl)carbonyl-3-[4-[2-(pyrrolidin-1-yl)ethoxy]phenylamino]-1H-1,2,4-triazole]	–
10 to 20	CC(C)(C)C(=O)Nc1ccc(C(=O)n2nc(Nc3ccc(OCCN4CCCC4)cc3)nc2N)cc1 [compound 290, 5-amino-1-(4-(tert-butylcarbonylamino)phenyl)carbonyl-3-[4-[2-(pyrrolidin-1-yl)ethoxy]phenylamino]-1H-1,2,4-triazole]	–
–	CC(C)(C)Oc1ccc(C(=O)n2nc(N)nc2Nc2ccc(N3CCCC3)cc2)cc1 [compound 292, 3-amino-1-(4-(tert-butoxy)phenyl)carbonyl-5-(4-(pyrrolidin-1-yl)phenylamino]-1H-1,2,4-triazole]	IC50 [2]: > 20 µM
1 to 10	CC(C)Oc1ccc(C(=O)n2nc(Nc3ccc(N4CCCC4)cc3)nc2N)cc1 [compound 293, 5-amino-1-(4-(iso-propoxy)phenyl)carbonyl-3-[4-(pyrrolidin-1-yl)phenylamino]-1H-1,2,4-triazole]	–
–	CC(C)Oc1ccc(C(=O)n2nc(N)nc2Nc2ccc(N3CCCC3)cc2)cc1 [compound 294, 3-amino-1-(4-(iso-propoxy)phenyl)carbonyl-5-(4-(pyrrolidin-1-yl)phenylamino]-1H-1,2,4-triazole]	IC50 [2]: > 20 µM
–	CC1(C)Oc2ccc(C(=O)n3nc(Nc4ccc(N5CCCC5)cc4)nc3N)cc2NC1=O [compound 295, 5-amino-1-(2,2-dimethyl-2H-benzo[b][1,4]oxazin-3(4H)-on-6-yl)carbonyl-3-[4-(pyrrolidin-1-yl)phenylamino]-1H-1,2,4-triazole]	IC50 [3]: 1 to 10 µM
–	CC1(C)Oc2ccc(C(=O)n3nc(N)nc3Nc3ccc(N4CCCC4)cc3)cc2NC1=O [compound 296, 3-amino-1-(2,2-dimethyl-2H-benzo[b][1,4]oxazin-3(4H)-on-6-yl)carbonyl-5-[4-(pyrrolidin-1-yl)phenylamino]-1H-1,2,4-triazole]	IC50 (Table 4, Hela cells, Axl antibody cross-linking stimulation, phospho-Akt chemiluminescence): 10 to 20 µM
> 20	CC(C)(C)c1ccc(C(=O)n2nc(Nc3ccc(N4CCCC4)cc3)nc2N)cc1 [compound 297, 5-amino-1-(4-(tert-butyl)phenyl)carbonyl-3-[4-(pyrrolidin-1-yl)phenylamino]-1H-1,2,4-triazole]	–
–	CC(C)(C)c1ccc(C(=O)n2nc(N)nc2Nc2ccc(N3CCCC3)cc2)cc1 [compound 298, 3-amino-1-(4-(tert-butyl)phenyl)carbonyl-5-[4-(pyrrolidin-1-yl)phenylamino]-1H-1,2,4-triazole]	IC50 [2]: > 20 µM
1 to 10	CN(C)c1ccc(C(=O)n2nc(Nc3ccc(N4CCCC4)cc3)nc2N)cc1 [compound 299, 5-amino-1-(4-(dimethylamino)phenyl)carbonyl-3-[4-(pyrrolidin-1-yl)phenylamino]-1H-1,2,4-triazole]	–
1 to 10	Cc1ccc(C(=O)n2nc(Nc3ccc(N4CCCC4)cc3)nc2N)cc1 [compound 300, 5-amino-1-(4-(methyl)phenyl)carbonyl-3-[4-(pyrrolidin-1-yl)phenylamino]-1H-1,2,4-triazole]	–
–	Cc1ccc(C(=O)n2nc(N)nc2Nc2ccc(N3CCCC3)cc2)cc1 [compound 301, 3-amino-1-(4-methylphenyl)carbonyl-5-(4-(pyrrolidin-1-yl)phenylamino]-1H-1,2,4-triazole]	IC50 [2]: > 20 µM
< 1	CC(C)(C)c1ccc(C(=O)n2nc(Nc3ccc(OCCN4CCCC4)cc3)nc2N)cc1 [compound 302, 5-amino-1-(4-(tert-butyl)phenyl)carbonyl-3-[4-[2-(pyrrolidin-1-yl)ethoxy]phenylamino]-1H-1,2,4-triazole]	–
–	CC(C)(C)c1ccc(C(=O)n2nc(N)nc2Nc2ccc(OCCN3CCCC3)cc2)cc1 [compound 303, 3-amino-1-(4-(tert-butyl)phenyl)carbonyl-5-[4-[2-(pyrrolidin-1-yl)ethoxy]phenylamino]-1H-1,2,4-triazole]	IC50 [2]: 1 to 10 µM
–	Nc1nc(Nc2ccc(OCCN3CCCC3)c(F)c2)n(C(=O)c2ccc(N3CCOCC3)cc2)n1 [compound 304, 3-amino-1-(4-(morpholin-4-yl)phenyl)carbonyl-5-[3-fluoro-4-[2-(pyrrolidin-1-yl)ethoxy]phenylamino]-1H-1,2,4-triazole]	IC50 [2]: 10 to 20 µM
< 1	Nc1nc(Nc2ccc(OCCN3CCCC3)c(F)c2)nn1C(=O)c1ccc(-c2csnn2)cc1 [compound 306, 5-amino-1-(4-(1,2,3-thiadiazol-4-yl)phenyl)carbonyl-3-[3-fluoro-4-[2-(pyrrolidin-1-yl)ethoxy]phenylamino]-1H-1,2,4-triazole]	–
< 1	CC(C)Oc1ccc(C(=O)n2nc(Nc3ccc(OCCN4CCCC4)c(F)c3)nc2N)cc1 [compound 307, 5-amino-1-(4-(iso-propoxy)phenyl)carbonyl-3-[3-fluoro-4-[2-(pyrrolidin-1-yl)ethoxy]phenylamino]-1H-1,2,4-triazole]	–
< 1	Nc1nc(Nc2ccc(OCCN3CCCC3)c(F)c2)nn1C(=O)c1ccccc1 [compound 308, 5-amino-1-(phenyl)carbonyl-3-[3-fluoro-4-[2-(pyrrolidin-1-yl)ethoxy]phenylamino]-1H-1,2,4-triazole]	–
–	Nc1nc(Nc2ccc(OCCN3CCCC3)c(F)c2)nn1C(=O)c1ccc2cc[nH]c2c1 [compound 309, 5-amino-1-(1H-indol-6-yl)carbonyl-3-[3-fluoro-4-[2-(pyrrolidin-1-yl)ethoxy]phenylamino]-1H-1,2,4-triazole]	IC50 [3]: < 1 µM
< 1	Nc1nc(Nc2ccc(OCCN3CCCC3)cc2)nn1C(=O)c1cccc(-c2nccs2)c1 [compound 310, 5-amino-1-(3-(thiazol-2-yl)phenyl)carbonyl-3-[4-[2-(pyrrolidin-1-yl)ethoxy]phenylamino]-1H-1,2,4-triazole]	–
< 1	Nc1nc(Nc2ccc(OCCN3CCCC3)cc2)nn1C(=O)c1ccc(-c2cccs2)cc1 [compound 311, 5-amino-1-(4-(thien-2-yl)phenyl)carbonyl-3-[4-[2-(pyrrolidin-1-yl)ethoxy]phenylamino]-1H-1,2,4-triazole]	–
–	Nc1nc(Nc2ccc(OCCN3CCCC3)cc2)nn1C(=O)c1csnn1 [compound 312, 5-amino-1-(1,2,3-thiadiazol-4-yl)carbonyl-3-[4-[2-(pyrrolidin-1-yl)ethoxy]phenylamino]-1H-1,2,4-triazole]	IC50 [3]: > 20 µM
< 1	Nc1nc(Nc2ccc(OCCN3CCCC3)cc2)nn1C(=O)c1cccc(-c2cccs2)c1 [compound 313, 5-amino-1-(3-(thien-2-yl)phenyl)carbonyl-3-[4-[2-(pyrrolidin-1-yl)ethoxy]phenylamino]-1H-1,2,4-triazole]	–
< 1	Nc1nc(Nc2ccc(OCCN3CCCC3)cc2)nn1C(=O)c1ccc(-c2ccsc2)cc1 [compound 314, 5-amino-1-(4-(thien-3-yl)phenyl)carbonyl-3-[4-[2-(pyrrolidin-1-yl)ethoxy]phenylamino]-1H-1,2,4-triazole]	–
< 1	COc1cc(Nc2nc(N)n(C(=O)c3ccc(C(C)(C)C)cc3)n2)ccc1OCCN1CCCC1 [compound 315, 5-amino-1-(4-(tert-butyl)phenyl)carbonyl-3-[3-methoxy-4-[2-(pyrrolidin-1-yl)ethoxy]phenylamino]-1H-1,2,4-triazole]	–
< 1	COc1cc(Nc2nc(N)n(C(=O)c3ccc(OC(C)C)cc3)n2)ccc1OCCN1CCCC1 [compound 316, 5-amino-1-(4-(iso-propoxy)phenyl)carbonyl-3-[3-methoxy-4-[2-(pyrrolidin-1-yl)ethoxy]phenylamino]-1H-1,2,4-triazole]	–

Structure (SMILES)	IC50 [1] [µM]	other results
CC(C)(C)Oc1ccc(C(=O)n2nc(Nc3ccc(N4CCCC4)cc3)nc2N)cc1 [compound 291, 5-amino-1-(4-(tert-butoxy)phenyl)carbonyl-3-[4-(pyrrolidin-1-yl)phenylamino]-1H-1,2,4-triazole]	> 20	–
CC(C)(C)Oc1ccc(C(=O)n2nc(Nc3ccc(OCCN4CCCC4)c(F)c3)nc2N)cc1 [compound 305, 5-amino-1-(4-(tert-butoxy)phenyl)carbonyl-3-[3-fluoro-4-[2-(pyrrolidin-1-yl)ethoxy]phenylamino]-1H-1,2,4-triazole]	< 1	–
COc1cc(Nc2nc(N)n(C(=O)c3ccc(OC(C)(C)C)cc3)n2)ccc1OCCN1CCCC1 [compound 317, 5-amino-1-(4-(tert-butoxy)phenyl)carbonyl-3-[3-methoxy-4-[2-(pyrrolidin-1-yl)ethoxy]phenylamino]-1H-1,2,4-triazole]	< 1	–
